Columns and labels:
Type in all cases: functional
[1] = tested on: HL-60; experiment: Cell cycle arrest in human HL-60 cells assessed as decrease in accumulation of cells at G2/M-phase at 2.32 uM measured after 24 hrs by propidium iodide staining based flow cytometry relative to control; set-up: scale not given: the % may be the effect or the level left
[2] = tested on: HL-60; experiment: Cell cycle arrest in human HL-60 cells assessed as increase in accumulation of cells at G0/G1-phase at 2.32 uM measured after 24 hrs by propidium iodide staining based flow cytometry relative to control
[3] = tested on: HL-60; experiment: Cell cycle arrest in human HL-60 cells assessed as decrease in accumulation of cells at S-phase at 2.32 uM measured after 24 hrs by propidium iodide staining based flow cytometry relative to control; set-up: scale not given: the % may be the effect or the level left
[4] = tested on: HL-60; experiment: Cell cycle arrest in human HL-60 cells assessed as decrease in accumulation of cells at S-phase at 2.29 uM measured after 24 hrs by propidium iodide staining based flow cytometry relative to control; set-up: scale not given: the % may be the effect or the level left
[5] = tested on: HL-60; experiment: Cell cycle arrest in human HL-60 cells assessed as decrease in accumulation of cells at G2/M-phase at 2.29 uM measured after 24 hrs by propidium iodide staining based flow cytometry relative to control; set-up: scale not given: the % may be the effect or the level left

Row | Structure (SMILES) | Activity [1] [%] | fold change (FC) [2] | Activity [3] [%] | Activity [4] [%] | Activity [5] [%]
1 | CCOc1cc(/C=N/Nc2nc(-c3cccc([N+](=O)[O-])c3)cs2)ccc1O | 63.5 | 1.28 | 2.5 | – | –
2 | O=[N+]([O-])c1cc(/C=N/Nc2nc(-c3ccc(Cl)cc3)cs2)ccc1Cl | – | – | – | 7.3 | 12.8

— ChEMBL document CHEMBL6177937, “Design, synthesis, and biological evaluation of novel thiazole derivatives as PI3K/mTOR dual inhibitors” (RSC Med Chem, 2024)
